Test results as given in ChEMBL document CHEMBL1133398, “Mechanism-based inactivation of thymidylate synthase by 5-(3-fluoropropyn-1-yl)-2'-deoxyuridine 5'-phosphate” (Bioorg Med Chem Lett, 2000).

Columns and labels:
Thymidylate synthase = molecular target: T1, Thymidylate synthase (Lactobacillus casei, UniProt P00469); assay: The compound was evaluated for the binding affinity against Lactobacillus casei dTMP synthase using spectrophotometric assay; design: species or system Lacticaseibacillus casei
T1 sequence (P00469 whole entry): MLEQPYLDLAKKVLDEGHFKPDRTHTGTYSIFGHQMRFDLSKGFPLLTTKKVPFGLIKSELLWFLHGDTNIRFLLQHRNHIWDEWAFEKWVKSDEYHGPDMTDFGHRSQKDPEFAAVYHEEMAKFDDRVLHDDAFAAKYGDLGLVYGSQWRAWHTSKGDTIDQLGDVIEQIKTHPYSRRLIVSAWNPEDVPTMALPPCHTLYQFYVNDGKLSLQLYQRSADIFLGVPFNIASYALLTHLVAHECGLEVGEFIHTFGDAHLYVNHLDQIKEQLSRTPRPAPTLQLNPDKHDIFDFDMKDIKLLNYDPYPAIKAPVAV

[1] = Half life was determined; assay type: ADME; details: rat

For `O=c1[nH]c(=O)n([C@H]2C[C@H](O)[C@@H](COP(=O)(O)O)O2)cc1C#CCF`, the Ki (Thymidylate synthase) was 14.8 nM and the half-life [1] was < 1 min.
